The results in this text go back to US9695155B2, “Herbicidal substituted pyrimidinyloxy benzene compounds” (E. I. DU PONT DE NEMOURS AND COMPANY, priority 2013, dated 2017).

In one assay the test system is corn. The assay can be described thus: Test C preemergence. Format: in vivo, Zea mays. The conditions noted are these: for Corn plant response rating / plant injury at 16 g/ha / plant injury at 62 g/ha / plant injury at 125 g/ha: preemergence; for plant injury at 16 g/ha / plant injury at 62 g/ha / plant injury at 125 g/ha: read-out: Corn plant response rating. The source says: Seeds of plant species selected from blackgrass (Alopecurus myosuroides), Italian ryegrass (Lolium multiflorum), wheat, winter (winter wheat, Triticum aestivum), galium (catchweed bedstraw, Galium aparine), corn (Zea mays), large (Lg) crabgrass (Digitaria sanguinalis), giant foxtail (Setaria faberii), johnsongrass (Sorghum halepense), lambsquarters (Chenopodium album), morningglory (Ipomoea coccinea), yellow nutsedge (Cyperus esculentus), pigweed (Amaranthus retroflexus), ragweed (common ragweed, Ambrosia elatior), soybean (Glycine max), barnyardgrass (Echinochloa crus-galli), oilseed rape (Brassica napus), waterhemp (common waterhemp, Amaranthus rudis), kochia (Kochia scoparia), wild oat (Avena fatua), surinam grass (Brachiaria decumbens), foxtail, green (green foxtail, Setaria viridis), goosegrass (Eleusine indica), bromegrass, downy (downy bromegrass, Bromus tectorum), nightshade (eastern black nightshade, Solanum ptycanthum), cocklebur (common cocklebur, Xanthium strumarium), cupgrass, woolly (woolly cupgrass, Eriochloa villosa), bermudagrass (Cynodon dactylon), sunflower, (common oilseed sunflower, Helianthus annuus), Russian thistle (Salsola kali), and velvetleaf (Abutilon theophrasti) were planted into a blend of loam soil and sand and treated preemergence with test chemicals formulated in a non-phytotoxic solvent mixture which included a surfactant.
At the same time, plants selected from these crop and weed species and also barley, winter (winter barley, Hordeum vulgare), windgrass (Apera spica-venti), chickweed (common chickweed, Stellaria media), deadnettle (henbit deadnettle, Lamium amplexicaule), and canarygrass (littleseed canarygrass, Phalaris minor) were planted in pots containing Redi-Earth® planting medium (Scotts Company, 14111 Scottslawn Road, Marysville, Ohio 43041) comprising spaghnum peat moss, vermiculite, wetting agent and starter nutrients and treated with postemergence applications of test chemicals formulated in the same manner. Plants ranged in height from 2 to 18 cm (1- to 4-leaf stage) for postemergence treatments. Treated plants and controls were maintained in a greenhouse for 13 to 15 days, after which time all species were compared to controls and visually evaluated. Plant response ratings, summarized in Table C, are based on a scale of 0 to 100 where 0 is no effect and 100 is complete control. A dash (-) response means no test result.

For another assay, the system named is field bindweed. Briefly: Test E postemergence. The assay is classed as in vivo, Convolvulus arvensis. The source says:
(§1) Seeds of plant species selected from corn (Zea mays), soybean (Glycine max), velvetleaf (Abutilon theophrasti), lambsquarters (Chenopodium album), wild poinsettia (Euphorbia heterophylla), palmer pigweed (Amaranthus palmeri), waterhemp (common waterhemp, Amaranthus rudis), surinam grass (Brachiaria decumbens), large (Lg) crabgrass (Digitaria sanguinalis), Brazilian crabgrass (Digitaria horizontalis), fall panicum (Panicum dichotomiflorum), giant foxtail (Setaria faberii), green foxtail (Setaria viridis), goosegrass (Eleusine indica), johnsongrass (Sorghum halepense), ragweed (common ragweed, Ambrosia elatior), barnyardgrass (Echinochloa crus-galli), sandbur (southern sandbur, Cenchrus echinatus), arrowleaf sida (Sida rhombifolia), Italian ryegrass (Lolium multiflorum), dayflower (Virginia (VA) dayflower, Commelina virginica), field bindweed (Convolvulus arvensis), morningglory (Ipomoea coccinea), nightshade (eastern black nightshade, Solanum ptycanthum), kochia (Kochia scoparia), yellow nutsedge (Cyperus esculentus), cocklebur (common cocklebur, Xanthium strumarium), smartweed (ladysthumb smartweed, and hairy beggarticks (Bidens pilosa), were planted into a silt loam soil and treated preemergence with test chemicals formulated in a non-phytotoxic solvent mixture which included a surfactant.
(§2) At the same time, plants from these crop and weed species and also horseweed (Canada horseweed, Conyza canadensis), waterhemp_RES1, (ALS & Triazine resistant common waterhemp, Amaranthus rudis), and waterhemp_RES2, (ALS & HPPD resistant common waterhemp, Amaranthus rudis) were planted in pots containing Redi-Earth® planting medium (Scotts Company, 14111 Scottslawn Road, Marysville, Ohio 43041) comprising spaghnum peat moss, vermiculite, wetting agent and starter nutrients were treated with postemergence applications of test chemicals formulated in the same manner. Plants ranged in height from 2 to 18 cm for postemergence treatments (1- to 4-leaf stage). Treated plants and controls were maintained in a greenhouse for 14 to 21 days, after which time all species were compared to controls and visually evaluated. Plant response ratings, summarized in Table E, are based on a scale of 0 to 100 where 0 is no effect and 100 is complete control. A dash (-) response means no test result.

The next assay deals with palmer pigweed. Briefly: Test E postemergence. The assay is classed as in vivo, Amaranthus palmeri.
Excerpt: as §1, §2

The subject of another assay is wild poinsettia. The assay can be described thus: Test E postemergence. Format: in vivo, Euphorbia heterophylla.
Excerpt: as §1, §2

[1] abbreviates: 16 g ai/ha, scale 0 to 100 (0 no effect, 100 complete control).
Where [2] appears, read: 62 g ai/ha, scale 0 (no effect) to 100 (complete control).
Setting [3] is: 125 g ai/ha, scale 0 (no effect) to 100 (complete control).
Where [4] appears, read: Preemergence, 31 g ai/ha, scale 0 to 100, 0 no effect, 100 complete control.
Where [5] appears, read: Postemergence, 31 g ai/ha, scale 0 to 100.
The mark [6] stands for this setting: Postemergence, 62 g ai/ha, scale 0 to 100.
The mark [7] stands for this setting: Postemergence, 125 g ai/ha, scale 0 to 100.
Where [8] appears, read: postemergence, 16 g ai/ha, scale 0 to 100, 0 no effect, 100 complete control.
Setting [9] is: Zea mays, pre-emergence, 16 g ai/ha, scale 0 to 100 (0 no effect, 100 complete control).
The mark [10] stands for this setting: Zea mays, pre-emergence, 62 g ai/ha, scale 0 (no effect) to 100 (complete control).
The mark [11] stands for this setting: Zea mays, pre-emergence, 125 g ai/ha, scale 0 (no effect) to 100 (complete control).
[12] abbreviates: Zea mays, pre-emergence, Preemergence, 31 g ai/ha, scale 0 to 100, 0 no effect, 100 complete control.
Setting [13] is: postemergence, 8 g ai/ha, scale 0 to 100, 0 no effect, 100 complete control.
The mark [14] stands for this setting: Preemergence, 62 g ai/ha, scale 0 to 100, 0 no effect, 100 complete control.

Molecules are shown by their SMILES.

Take `N#Cc1cccc(Oc2ncc(Cl)cn2)c1-n1cc(OC(F)F)cn1` [Compound 97]: the “Corn plant response rating” value was 0 in the assay with corn (setting [1]), 45 with corn (setting [2]) and 80 with corn (setting [3]). The “Plant response rating, Corn” value in the assay on corn (setting [4]) stood at 5.
Take `Clc1cnc(Oc2cccc(Cl)c2-n2cc(I)cn2)nc1` [Compound 181]: the “Plant response rating, Field Bindweed” value with field bindweed (setting [5]) was determined as 40; in the assay with field bindweed (setting [6]), 40; in the assay with field bindweed (setting [7]), 50; with field bindweed (setting [8]), 25. For the same compound, the “Plant response rating, Pigweed, Palmer” value in the assay on palmer pigweed (setting [5]) turned out to be 70; with palmer pigweed (setting [6]) it was 90; in the assay with palmer pigweed (setting [7]), 98; with palmer pigweed (setting [8]), 80. Also, the “Plant response rating, Poinsettia, Wild” value in the assay with wild poinsettia (setting [5]) is 50; in the assay on wild poinsettia (setting [6]), 50; in the assay on wild poinsettia (setting [7]) it was 60; in the assay with wild poinsettia (setting [8]), 40.
For `Fc1cnc(Oc2cccc(C(F)F)c2-n2cc(Cl)cn2)nc1` [Compound 94], the entries for the “Corn plant response rating” value in the assay on corn (setting [1]), in the assay on corn (setting [2]) and in the assay on corn (setting [3]) were 5, 5 and 55, respectively. The “Plant response rating, Corn” value in the assay on corn (setting [4]) stood at 5.
As to `N#Cc1cnn(-c2c(C#N)cccc2Oc2ncc(Br)cn2)c1` [Compound 135], the “Corn plant response rating” value in the assay on corn (8 g ai/ha, scale 0 to 100 (0 no effect, 100 complete control)) came out at 5; with corn (setting [1]), 10; in the assay with corn (setting [2]) it was 30. Besides, the “Plant response rating, Corn” value with corn (setting [4]) was 5.
Regarding `FC(F)c1cn(-c2ccccc2Oc2ncc(Cl)cn2)nn1` [Compound 147, 5-chloro-2-[2-[4-(difluoromethyl)-1H-1,2,3-triazol-1-yl]phenoxy]pyrimidine], in the assay on corn (setting [9]), the plant injury at 16 g/ha was determined as 0%. In addition, the plant injury at 62 g/ha in the assay on corn (setting [10]) was found to be 20%. Further, the plant injury at 125 g/ha with corn (setting [11]) is 35%. In the assay with corn (setting [12]), this compound came in with a Corn plant response rating (crop injury, 0 = no effect, 100 = complete kill) at 31 g/ha of 0%.
As to `N#Cc1cccc(Oc2ncc(Cl)cn2)c1-n1cc(SC(F)(F)F)cn1` [Compound 134, 3-[(5-chloro-2-pyrimidinyl)oxy]-2-[4-(trifluoromethylthio)-1-pyrazolyl]benzonitrile], the plant injury at 16 g/ha in the assay with corn (setting [9]) came out at 0%. The plant injury at 62 g/ha with corn (setting [10]) is 40%. In addition, the plant injury at 125 g/ha in the assay with corn (setting [11]) came out at 40%. Further, the Corn plant response rating (crop injury, 0 = no effect, 100 = complete kill) at 31 g/ha in the assay on corn (setting [12]) came out at 30%.
Regarding `Clc1cnc(Oc2ccccc2-n2cc(Br)nn2)nc1` [Compound 223], the “Plant response rating, Field Bindweed” value with field bindweed (setting [5]) came out at 35; in the assay on field bindweed (setting [6]), 50; in the assay on field bindweed (setting [7]) it was 50; with field bindweed (setting [13]), 20; in the assay with field bindweed (setting [8]) it was 20. Further, the “Plant response rating, Pigweed, Palmer” value in the assay on palmer pigweed (setting [5]) was 50; in the assay with palmer pigweed (setting [6]), 60; in the assay with palmer pigweed (setting [7]) it was 85; in the assay with palmer pigweed (setting [13]), 15; with palmer pigweed (setting [8]), 25. Besides, the “Plant response rating, Poinsettia, Wild” value was found to be 40 with wild poinsettia (setting [5]); 50 in the assay with wild poinsettia (setting [6]); 60 with wild poinsettia (setting [7]); 30 in the assay on wild poinsettia (setting [13]); 30 in the assay with wild poinsettia (setting [8]).
Consider `N#Cc1cnn(-c2c(Oc3ncc(F)cn3)cccc2C(F)F)c1` [Compound 240], for which the figures for the “Corn plant response rating” value in the assay on corn (setting [1]) and with corn (setting [3]) were 5 and 35, respectively. In the assay on corn (setting [14]), the “Plant response rating, Corn” value is on record as 5.
Regarding `Fc1cccc(Oc2ncc(Cl)cn2)c1-n1cc(C(F)F)nn1` [Compound 141, 5-chloro-2-[2-[4-(difluoromethyl)-1H-1,2,3-triazol-1-yl]-3-fluorophenoxy]pyrimidine], in the assay on corn (setting [9]), the plant injury at 16 g/ha came out at 5%. In addition, the plant injury at 62 g/ha in the assay with corn (setting [10]) was found to be 80%. Further, the plant injury at 125 g/ha in the assay with corn (setting [11]) turned out to be 90%. This compound also displayed a Corn plant response rating (crop injury, 0 = no effect, 100 = complete kill) at 31 g/ha in the assay on corn (setting [12]) of 20%.
On to `FC(F)Oc1cnn(-c2c(Cl)cccc2Oc2ncc(Cl)cn2)c1` [Compound 258], for which the “Corn plant response rating” value in the assay with corn (setting [1]) came to 0; in the assay with corn (setting [3]) it was 65. The “Plant response rating, Corn” value in the assay with corn (setting [14]) turned out to be 45.
The corresponding values for `N#Cc1cn(-c2c(C#N)cccc2Oc2ncc(Cl)cn2)nn1` [Compound 273] are 0, 35 and 45.
With `FC(F)(F)c1cnn(-c2c(Br)cccc2Oc2ncc(Cl)cn2)c1` [Compound 191], the “Plant response rating, Field Bindweed” value in the assay on field bindweed (setting [5]) is reported as 50; in the assay on field bindweed (setting [6]), 40; with field bindweed (setting [7]), 50; in the assay on field bindweed (setting [13]), 20; with field bindweed (setting [8]), 40. The “Plant response rating, Pigweed, Palmer” value in the assay on palmer pigweed (setting [5]) was 75; in the assay with palmer pigweed (setting [6]), 75; in the assay on palmer pigweed (setting [7]), 85; with palmer pigweed (setting [13]), 20; with palmer pigweed (setting [8]), 40. Further, the “Plant response rating, Poinsettia, Wild” value was determined as 50 in the assay on wild poinsettia (setting [5]); 50 with wild poinsettia (setting [6]); 60 in the assay with wild poinsettia (setting [7]); 20 in the assay on wild poinsettia (setting [13]); 40 in the assay on wild poinsettia (setting [8]).
Consider `N#Cc1cccc(Oc2ncc(Cl)cn2)c1-n1cc(C(F)F)cn1` [Compound 253, 3-(5-chloropyrimidin-2-yl)oxy-2-[4-(difluoromethyl)-1H-pyrazol-1-yl]benzonitrile], for which the plant injury at 16 g/ha in the assay with corn (setting [9]) amounted to 0%. Also, in the assay on corn (setting [11]), the plant injury at 125 g/ha was 90%. In addition, the Corn plant response rating (crop injury, 0 = no effect, 100 = complete kill) at 62 g/ha in the assay on corn (Zea mays, pre-emergence, Preemergence, 62 g ai/ha, scale 0 to 100, 0 no effect, 100 complete control) is 35%.
For the compound `CC(C)c1cnn(-c2c(C#N)cccc2Oc2ncc(Cl)cn2)c1` [Compound 85], the “Corn plant response rating” value in the assay with corn (setting [1]) came out at 5; with corn (setting [2]) it was 5; in the assay with corn (setting [3]), 45. Further, the “Plant response rating, Corn” value in the assay on corn (setting [4]) was found to be 10.
